Reference: US8912169B2, “Beta-lactamase inhibitors” (VenatoRx Pharmaceuticals, Inc., priority 2012, dated 2014)

Assays:
Assay type in all cases: biochemical
KPC-2 = biological target: T1, KPC-2 (Klebsiella pneumoniae, UniProt Q9F663); assay: β-lactamase enzyme inhibition, KPC-2; settings: substrate imipenem, 300 nm; read-out: Class A KPC-2 IC50
T1 construct: made in house; host or cells: E. coli BL21(DE3)
Procedure, shortened: (§1)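 Native untagged β-lactamases expressed in E. coli BL21(DE3) and purified, then pre-incubated with inhibitor 15 min at 37 °C. Hydrolysis was followed by absorbance: 100 μM nitrocefin at 486 nm for p99 AmpC and OXA-1; imipenem at 300 nm for KPC-2; cefotaxime at 260 nm for SHV-5. IC50 from initial-rate inhibition versus uninhibited controls.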

p99 AmpC = biological target: T2, p99 AmpC (Enterobacter cloacae, UniProt P05364); assay: β-lactamase enzyme inhibition, p99 AmpC
T2 construct: made in house; host or cells: E. coli BL21(DE3)
Procedure, shortened: as §1

OXA-1 = biological target: T3, OXA-1 (Escherichia coli, UniProt P13661); assay: β-lactamase enzyme inhibition, OXA-1; settings: substrate Nitrocefin 100 μM, 486 nm; read-out: Class D OXA-1 IC50
T3 construct: made in house; host or cells: E. coli BL21(DE3)
Procedure, shortened: as §1

SHV-5 = biological target: T4, SHV-5 (Klebsiella pneumoniae, UniProt P0A3M1); assay: β-lactamase enzyme inhibition, SHV-5
T4 construct: made in house; host or cells: E. coli BL21(DE3)
Procedure, shortened: as §1

VIM-2 = biological target: T5, VIM-2 (Escherichia coli, UniProt Q5U7L7); assay: β-lactamase enzyme inhibition, VIM-2; settings: substrate Nitrocefin 100 μM, 486 nm; read-out: Class B VIM-2 IC50
T5 construct: made in house; host or cells: E. coli BL21(DE3)
Procedure, shortened: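 Purified VIM-2 (Q sepharose, 50 mM Hepes pH 7.5, >90% purity) preincubated with inhibitor 15 min at 37° C, then nitrocefin added at 100 μM final. Hydrolysis followed at 486 nm for 10 min; IC50 from initial rates versus inhibitor-free control wells.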

| Structure (SMILES) | IC50 (KPC-2) [µM] | IC50 (p99 AmpC) [µM] | IC50 (OXA-1) [µM] | IC50 (SHV-5) [µM] | IC50 (VIM-2) [µM] |
| --- | --- | --- | --- | --- | --- |
| NCCNC(=O)NCCN(C(=O)NCCN)C1CC(CC(=O)N[C@H]2Cc3cccc(C(=O)O)c3OB2O)C1 (stereo partly drawn) [Example 57, (R)-3-(2-(3-(3-(2-aminoethyl)-1-(2-(3-(2-aminoethyl)ureido)ethyl)ureido)cyclobutyl)acetamido)-2-hydroxy-3,4-dihydro-2H-benzo[e][1,2]oxaborinine-8-carboxylic acid] | < 0.1 | < 0.1 | < 0.1 | < 0.1 | 0.1 to 1 |
| NCCNC(=O)NC1CC(CC(=O)N[C@H]2Cc3cccc(C(=O)O)c3OB2O)C1 (stereo partly drawn) [Example 58, (R)-3-(2-(3-(3-(2-aminoethyl)ureido)cyclobutyl)acetamido)-2-hydroxy-3,4-dihydro-2H-benzo[e][1,2]oxaborinine-8-carboxylic acid] | < 0.1 | < 0.1 | < 0.1 | < 0.1 | 0.1 to 1 |
| NCCNC(=O)N[C@H]1CC[C@H](CC(=O)N[C@H]2Cc3cccc(C(=O)O)c3OB2O)CC1 [Example 59, (R)-3-(2-(trans-4-(3-(2-aminoethyl)ureido)cyclohexyl)acetamido)-2-hydroxy-3,4-dihydro-2H-benzo[e][1,2]oxaborinine-8-carboxylic acid] | < 0.1 | < 0.1 | < 0.1 | < 0.1 | 0.1 to 1 |
| NCCCN[C@H]1CC[C@H](CC(=O)N[C@H]2Cc3cccc(C(=O)O)c3OB2O)CC1 [Example 60, (R)-3-(2-(trans-4-(3-aminopropylamino)cyclohexyl)acetamido)-2-hydroxy-3,4-dihydro-2H-benzo[e][1,2]oxaborinine-8-carboxylic acid] | < 0.1 | < 0.1 | < 0.1 | < 0.1 | < 0.1 |
| O=C(C[C@H]1CC[C@H](NCCNCCO)CC1)N[C@H]1Cc2cccc(C(=O)O)c2OB1O [Example 61, (R)-2-hydroxy-3-(2-(trans-4-(2-(2-hydroxyethylamino)ethylamino)cyclohexyl)acetamido)-3,4-dihydro-2H-benzo[e][1,2]oxaborinine-8-carboxylic acid] | < 0.1 | < 0.1 | < 0.1 | < 0.1 | < 0.1 |
| C[C@H](N)CNCCN[C@H]1CC[C@H](CC(=O)N[C@H]2Cc3cccc(C(=O)O)c3OB2O)CC1 [Example 62, (R)-3-(2-(trans-4-(2-((S)-2-aminopropylamino)ethylamino)cyclohexyl)acetamido)-2-hydroxy-3,4-dihydro-2H-benzo[e][1,2]oxaborinine-8-carboxylic acid] | < 0.1 | < 0.1 | < 0.1 | < 0.1 | < 0.1 |
| CN(CCN)[C@H]1CC[C@H](CC(=O)N[C@H]2Cc3cccc(C(=O)O)c3OB2O)CC1 [Example 63, (R)-3-(2-(trans-4-((2-aminoethyl)(methyl)amino)cyclohexyl)acetamido)-2-hydroxy-3,4-dihydro-2H-benzo[e][1,2]oxaborinine-8-carboxylic acid] | < 0.1 | < 0.1 | < 0.1 | < 0.1 | < 0.1 |
| CNCCN[C@H]1CC[C@H](C(CO)C(=O)N[C@H]2Cc3cccc(C(=O)O)c3OB2O)CC1 (stereo partly drawn) [Example 64, (R)-2-hydroxy-3-(3-hydroxy-2-(trans-4-(2-(methylamino)ethylamino)cyclohexyl)propanamido)-3,4-dihydro-2H-benzo[e][1,2]oxaborinine-8-carboxylic acid] | 0.1 to 1 | < 0.1 | < 0.1 | < 0.1 | < 0.1 |
| N[C@@H](CO)CN[C@H]1CC[C@H](CC(=O)N[C@H]2Cc3cccc(C(=O)O)c3OB2O)CC1 [Example 65, (R)-3-(2-(trans-4-((R)-2-amino-3-hydroxypropylamino)cyclohexyl)acetamido)-2-hydroxy-3,4-dihydro-2H-benzo[e][1,2]oxaborinine-8-carboxylic acid] | < 0.1 | < 0.1 | < 0.1 | < 0.1 | < 0.1 |
| CSCCN[C@H]1CC[C@H](CC(=O)N[C@H]2Cc3cccc(C(=O)O)c3OB2O)CC1 [Example 66, (R)-2-hydroxy-3-(2-(trans-4-(2-(methylthio)ethylamino)cyclohexyl)acetamido)-3,4-dihydro-2H-benzo[e][1,2]oxaborinine-8-carboxylic acid] | < 0.1 | < 0.1 | < 0.1 | < 0.1 | 1 to 10 |
| N[C@H](CO)CN[C@H]1CC[C@H](CC(=O)N[C@H]2Cc3cccc(C(=O)O)c3OB2O)CC1 [Example 67, (R)-3-(2-(trans-4-((S)-2-amino-3-hydroxypropylamino)cyclohexyl)acetamido)-2-hydroxy-3,4-dihydro-2H-benzo[e][1,2]oxaborinine-8-carboxylic acid] | < 0.1 | < 0.1 | < 0.1 | < 0.1 | 0.1 to 1 |
| NCC(=O)N[C@H]1CC[C@H](CC(=O)N[C@H]2Cc3cccc(C(=O)O)c3OB2O)CC1 [Example 68, (R)-3-(2-(trans-4-(2-aminoacetamido)cyclohexyl)acetamido)-2-hydroxy-3,4-dihydro-2H-benzo[e][1,2]oxaborinine-8-carboxylic acid] | < 0.1 | < 0.1 | < 0.1 | < 0.1 | 0.1 to 1 |
| O=C(C[C@H]1CC[C@H](N(Cc2ncc[nH]2)Cc2ncc[nH]2)CC1)N[C@H]1Cc2cccc(C(=O)O)c2OB1O [Example 69, (R)-3-(2-(trans-4-(bis((1H-imidazol-2-yl)methyl)amino)cyclohexyl)acetamido)-2-hydroxy-3,4-dihydro-2H-benzo[e][1,2]oxaborinine-8-carboxylic acid] | < 0.1 | < 0.1 | < 0.1 | < 0.1 | < 0.1 |
| O=C(C[C@H]1CC[C@H](NCc2cnc[nH]2)CC1)N[C@H]1Cc2cccc(C(=O)O)c2OB1O [Example 70, (R)-3-(2-(trans-4-((1H-imidazol-5-yl)methylamino)cyclohexyl)acetamido)-2-hydroxy-3,4-dihydro-2H-benzo[e][1,2]oxaborinine-8-carboxylic acid] | < 0.1 | < 0.1 | < 0.1 | < 0.1 | 0.1 to 1 |
| CC(C)NCCN[C@H]1CC[C@H](CC(=O)N[C@H]2Cc3cccc(C(=O)O)c3OB2O)CC1 [Example 71, (R)-2-hydroxy-3-(2-(trans-4-(2-(isopropylamino)ethylamino)cyclohexyl)acetamido)-3,4-dihydro-2H-benzo[e][1,2]oxaborinine-8-carboxylic acid] | < 0.1 | < 0.1 | < 0.1 | < 0.1 | < 0.1 |
| O=C(C[C@H]1CC[C@H](NCCNc2ncccn2)CC1)N[C@H]1Cc2cccc(C(=O)O)c2OB1O [Example 72] | < 0.1 | < 0.1 | < 0.1 | < 0.1 | 0.1 to 1 |
| O=C(C[C@H]1CC[C@H](NCCNC2CCCC2)CC1)N[C@H]1Cc2cccc(C(=O)O)c2OB1O [Example 73, (R)-3-(2-(trans-4-(2-(cyclopentylamino)ethylamino)cyclohexyl)acetamido)-2-hydroxy-3,4-dihydro-2H-benzo[e][1,2]oxaborinine-8-carboxylic acid] | < 0.1 | < 0.1 | < 0.1 | < 0.1 | < 0.1 |
| O=C(C[C@H]1CC[C@H](NCCNCC2CC2)CC1)N[C@H]1Cc2cccc(C(=O)O)c2OB1O [Example 74, (R)-3-(2-(trans-4-(2-(cyclopropylmethylamino)ethylamino)cyclohexyl)acetamido)-2-hydroxy-3,4-dihydro-2H-benzo[e][1,2]oxaborinine-8-carboxylic acid] | < 0.1 | < 0.1 | < 0.1 | < 0.1 | < 0.1 |
| O=C(C[C@H]1CC[C@H](NCCN(CC2CC2)CC2CC2)CC1)N[C@H]1Cc2cccc(C(=O)O)c2OB1O [Example 75, (R)-3-(2-(trans-4-(2-(bis(cyclopropylmethyl)amino)ethylamino)cyclohexyl)acetamido)-2-hydroxy-3,4-dihydro-2H-benzo[e][1,2]oxaborinine-8-carboxylic acid] | < 0.1 | < 0.1 | < 0.1 | < 0.1 | < 0.1 |
| NCCC(N)[C@H]1CC[C@H](CC(=O)N[C@H]2Cc3cccc(C(=O)O)c3OB2O)CC1 (stereo partly drawn) [Example 76, (R)-3-(2-(trans-4-(1,3-diaminopropyl)cyclohexyl)acetamido)-2-hydroxy-3,4-dihydro-2H-benzo[e][1,2]oxaborinine-8-carboxylic acid] | < 0.1 | < 0.1 | < 0.1 | < 0.1 | < 0.1 |
| NCC(N)[C@H]1CC[C@H](CC(=O)N[C@H]2Cc3cccc(C(=O)O)c3OB2O)CC1 (stereo partly drawn) [Example 77, (R)-3-(2-(trans-4-(1,2-diaminoethyl)cyclohexyl)acetamido)-2-hydroxy-3,4-dihydro-2H-benzo[e][1,2]oxaborinine-8-carboxylic acid] | 0.1 to 1 | < 0.1 | < 0.1 | < 0.1 | 0.1 to 1 |
